Experimental data reported in patent US20140303092A1 (CHIMERIX, INC., priority 2011, published 2014).

Test: Study HDP-CDV-201: safety and tolerability (adverse events, laboratory abnormalities, discontinuations)
Assay type: in vivo, human (adult allogeneic HSCT recipients)
Details: 200 mg BIW
Protocol: Clinical Studies of HDP-CDV were performed and described in detail in the following Examples. For example, HDP-CDV-201 is a placebo-controlled, dose-escalating trial in HSCT CMV (R+) recipients, evaluating the ability of HDP-CDV to prevent or control CMV infection was carried out. Five cohorts were established in which participants or subjects received either placebo or the HDP-CDV orally, in doses ranging from 40 mg weekly (QW) to 200 mg twice weekly (BIW). Subjects who were post-HSCT were enrolled at the time of engraftment and randomized to HDP-CDV or placebo (3 to 1 ratio) and received blinded therapy until approximately 100 day post-transplantation. HDP-CDV doses were 40 mg QW, 100 mg QW, 200 mg QW, 200 mg BIW and 100 mg BIW. Escalation to the next dose was decided by the data monitoring committee after review of the safety data from the previous Cohort. Subjects who developed CMV disease or CMV infection requiring pre-emptive therapy with local standard of care were discontinued from blinded therapy and followed for 4 weeks. Subjects who completed treatment with blinded therapy were followed for 8 weeks post-therapy.
Data from Study HDP-CDV-201 also provided characterization of the safety and tolerability profile of HDP-CDV when administered for the prevention or control of CMV infection in high risk (R^+) post-HSCT adult subjects.
The Safety population (SAFETY) included all randomized subjects who took at least one dose of study treatment. This population was used to summarize safety outcomes based on the treatment actually received, in cases where a subject was treated contrary to the randomization schedule.
The safety and tolerability profile of HDP-CDV, including subject demographics and Baseline characteristics; the AE profile; and laboratory abnormalities of interest were analyzed in the cohorts followed in this investigation.
Subjects completing the treatment period received a full course of study medication; those completing the entire study attended visits through 8 weeks of follow up. Subjects who discontinued treatment may have done so for protocol specified reasons (e.g. development of clinically significant CMV infection requiring preemptive treatment with excluded anti-CMV medications) or for other reasons (e.g., withdrawal, adverse events, loss to follow-up). The disposition of subjects in Study HDP-CDV-201 during the double-blind, placebo-controlled treatment period (through Week 11) is listed by dosing Cohort in TABLE 23.
Adverse events were examined by severity to ensure that all safety signals were identified in this study population. Because of the frequency of events in HSCT recipients, particular attention was given to evaluation of Grade 3 […], 4 (severe), and 5 (fatal) adverse events.
Only those preferred terms for which at least one Grade 3 or higher event was experienced in any treatment group are listed. Cytomegalovirus-related AEs are excluded from this analysis.
HDP-CDV is a lipid conjugate of CDV. Because CDV is known to have adverse effects on renal function and bone marrow, decreased GFR and persistent neutropenia were identified as AEs of special interest. Key renal and hematological (TABLE 30) laboratory parameters were measured and listed below by Study HDP-CDV-201 treatment groups. TABLE 30 includes abnormal levels of serum creatinine, neutrophils, platelets, WBCs, and hemoglobin and includes data at Screening and during the treatment period.
A common metric for unit based dosing of medications is by weight (mg/kg). When the distribution of weights was examined for all subjects participating in the study, the median was 78 kg and the lower 25th percentile weight was approximately 65 kg, which translates to a cut-off of ˜3 mg/kg for a 200 mg total weekly dose. Based upon this approach, a cut-off of 3 mg/kg was used to assess the frequency of diarrhea and associated GI AEs reported for the subjects in Cohorts 3 or 4a (TABLE 40).

CCCCCCCCCCCCCCCCOCCCOP(=O)(O)COC(CO)Cn1ccc(N)nc1=O (stereo not drawn) [HDP-CDV]
TEAE Abdominal pain, Grade 3: 0
TEAE Abdominal pain, Grade 4: 0
TEAE Abdominal pain, Grade 5: 0
TEAE Acute GVHD, Frequency: 24 (80.0%)
TEAE Acute GVHD, Grade 2: 8 (26.6%)
TEAE Acute GVHD, Grade 3: 10 (30.0%)
TEAE Acute GVHD, Grade 4: 2 (6.7%)
TEAE Acute GVHD, Grade 5: 3 (10.0%)
TEAE Arthralgias, Frequency: 1 (3.3%)
TEAE Arthralgias, Grade 2: 1 (3.3%)
TEAE Arthralgias, Grade 3: 0
TEAE Arthralgias, Grade 4: 0
TEAE Arthralgias, Grade 5: 0
TEAE Back Pain, Frequency: 3 (10.0%)
TEAE Back Pain, Grade 2: 1 (3.3%)
TEAE Back Pain, Grade 3: 0
TEAE Back Pain, Grade 4: 0
TEAE Back Pain, Grade 5: 0
TEAE Decreased appetite, Frequency: 5 (16.7%)
TEAE Decreased appetite, Grade 2: 4 (13.3%)
TEAE Decreased appetite, Grade 3: 0
TEAE Decreased appetite, Grade 4: 0
TEAE Decreased appetite, Grade 5: 0
TEAE Diarrhea, Frequency: 21 (70.0%)
TEAE Diarrhea, Grade 2: 8 (26.7%)
TEAE Diarrhea, Grade 3: 11 (36.7%)
TEAE Diarrhea, Grade 4: 0
TEAE Diarrhea, Grade 5: 0
TEAE Fatigue, Frequency: 0
TEAE Fatigue, Grade 2: 0
TEAE Fatigue, Grade 3: 0
TEAE Fatigue, Grade 4: 0
TEAE Fatigue, Grade 5: 0
TEAE GGT Increased, Frequency: 3 (10.0%)
TEAE GGT Increased, Grade 2: 0
TEAE GGT Increased, Grade 3: 1 (3.3%)
TEAE GGT Increased, Grade 4: 1 (3.3%)
TEAE GGT Increased, Grade 5: 0
TEAE Generalized oedema, Frequency: 3 (10.0%)
TEAE Generalized oedema, Grade 2: 0
TEAE Generalized oedema, Grade 3: 2 (6.7%)
TEAE Generalized oedema, Grade 4: 0
TEAE Generalized oedema, Grade 5: 0
TEAE Hyperbilirubinaemia, Frequency: 5 (16.7%)
TEAE Hyperbilirubinaemia, Grade 2: 1 (3.3%)
TEAE Hyperbilirubinaemia, Grade 3: 0
TEAE Hyperbilirubinaemia, Grade 4: 1 (3.3%)
TEAE Hyperbilirubinaemia, Grade 5: 0
TEAE Hyperglycaemia, Frequency: 8 (26.7%)
TEAE Hyperglycaemia, Grade 2: 5 (16.7%)
TEAE Hyperglycaemia, Grade 3: 2 (6.7%)
TEAE Hyperglycaemia, Grade 4: 0
TEAE Hyperglycaemia, Grade 5: 0
TEAE Hyperkalemia, Frequency: 3 (10.0%)
TEAE Hyperkalemia, Grade 2: 1 (3.3%)
TEAE Hyperkalemia, Grade 3: 1 (3.3%)
TEAE Hyperkalemia, Grade 4: 0
TEAE Hyperkalemia, Grade 5: 0
TEAE Hypocalcaemia, Frequency: 3 (10.0%)
TEAE Hypocalcaemia, Grade 2: 1 (3.3%)
TEAE Hypocalcaemia, Grade 3: 1 (3.3%)
TEAE Hypocalcaemia, Grade 4: 0
TEAE Hypocalcaemia, Grade 5: 0
TEAE Hypokalaemia, Frequency: 5 (16.7%)
TEAE Hypokalaemia, Grade 2: 1 (3.3%)
TEAE Hypokalaemia, Grade 3: 1 (3.3%)
TEAE Hypokalaemia, Grade 4: 0
TEAE Hypokalaemia, Grade 5: 0
TEAE Hyponatraemia, Frequency: 2 (6.7%)
TEAE Hyponatraemia, Grade 2: 0
TEAE Hyponatraemia, Grade 3: 0
TEAE Hyponatraemia, Grade 4: 0
TEAE Hyponatraemia, Grade 5: 0
TEAE LFT Abnormal, Frequency: 3 (10.0%)
TEAE LFT Abnormal, Grade 2: 1 (3.3%)
TEAE LFT Abnormal, Grade 3: 1 (3.3%)
TEAE LFT Abnormal, Grade 4: 0
TEAE LFT Abnormal, Grade 5: 0
TEAE Leukocytosis, Frequency: 3 (10.0%)
TEAE Leukocytosis, Grade 2: 1 (3.3%)
TEAE Leukocytosis, Grade 3: 0
TEAE Leukocytosis, Grade 4: 0
TEAE Leukocytosis, Grade 5: 0
TEAE Nausea, Frequency: 11 (36.7%)
TEAE Nausea, Grade 2: 6 (20.0%)
TEAE Nausea, Grade 3: 1 (3.3%)
TEAE Nausea, Grade 4: 0
TEAE Nausea, Grade 5: 0
TEAE Neutropenia, Frequency: 4 (13.3%)
TEAE Neutropenia, Grade 2: 0
TEAE Neutropenia, Grade 3: 1 (3.3%)
TEAE Neutropenia, Grade 4: 2 (6.7%)
TEAE Neutropenia, Grade 5: 0
TEAE Pneumonia, Frequency: 1 (3.3%)
TEAE Pneumonia, Grade 2: 0
TEAE Pneumonia, Grade 3: 1 (3.3%)
TEAE Pneumonia, Grade 4: 0
TEAE Pneumonia, Grade 5: 0
TEAE Pyrexia, Frequency: 2 (6.7%)
TEAE Pyrexia, Grade 2: 0
TEAE Pyrexia, Grade 3: 0
TEAE Pyrexia, Grade 4: 0
TEAE Pyrexia, Grade 5: 0
TEAE Renal Failure, Frequency: 0
TEAE Renal Failure, Grade 2: 0
TEAE Renal Failure, Grade 3: 0
TEAE Renal Failure, Grade 4: 0
TEAE Renal Failure, Grade 5: 0
TEAE Staphylococcal Bacteremia, Frequency: 1 (3.3%)
TEAE Staphylococcal Bacteremia, Grade 2: 0
TEAE Staphylococcal Bacteremia, Grade 3: 1 (3.3%)
